Measured values taken from US5605911A, “Use of alpha-2 adrenergic drugs to prevent adverse effects of NMDA receptor hypofunction (NRH)” (priority 1995, dated 1997).
“Also recorded” adds a separate entry of the source. Read-outs that look alike come from different tables or passages of the source.

Tests used:
PC/RS cortical neurons = test: protection by anti-psychotic drugs against MK-801 (NRH)-induced vacuoles in rats; assay type: in vivo; details: Rattus norvegicus, Cortical neurone, ip
Experimental: Control animals received saline or DMSO, but no anti-psychotic drugs. Test animals were injected ip with an antipsychotic drug, listed above and in Table 2. Vacuoles were counted and data were processed as described in Example 1.

[1] = test system: pyramidal neurons in layers III and IV of the posterior cingulate (PC) and retrosplenial (RS) cortices; test: protection by alpha-2 adrenergic agonists against MK-801 neurotoxicity (vacuolated PC/RS neurons) in rats; details: for ED50: Rattus norvegicus, Pyramidal neuron, ip; for relative potency in preventing the neurotoxic reaction: ranking in words among the four α2 agonists
Description: For each test agent, at least 17 rats were used and at least four doses tested.
The rats were sacrificed four hours after treatment, and brain tissue from the PC/RS region was histopathologically evaluated by previously described methods using double-blinded techniques (Olney et al 1991). The number of vacuolated PC and RS neurons were counted on each side of the brain at a rostrocaudal level immediately posterior to where the corpus callosum ceases decussating across the midline (approximately 5.6 mm caudal to Bregma; Paxinos & Watson, The Rat Brain in Stereotaxic Coordinates, 2d Ed., 1986).

chick embryo retina = test: NMDA excitotoxicity in chick embryo retina segments, protection by MK-801 with or without alpha-2 agonist; assay type: cell-based; details: MK-801 500 nM; for cytopathology in retina incubated in NMDA plus MK-801, without or with α2 agonist: NMDA 40 μM, α2 agonist 500 nM to 100 μM, n=6 per condition
Experimental: These experiments were performed using segments of chick embryo retina. This is a widely used model for studying the production and prevention of excitotoxic phenomena, since it is simple and inexpensive. Chick tissue is used, since it tends to provide a better model of adult mammalian tissue than embryonic or juvenile mammalian tissue. Unlike newborn mammals, which are usually blind at birth, baby chicks can see quite well as soon as they emerge from the shell, and the NMDA receptors in chick retinal tissue are fully mature and functional.
In these tests, NMDA was introduced into the incubation medium in a concentration (40 μM) sufficient to produce a fully developed excitotoxic lesion within 30 min, displaying acute degeneration and necrosis of the majority of neurons in the inner layers of the retina.

α2 receptors = details: in words; cited from earlier work
[2] = test system: people addicted to cigarettes or opiates; details: cited from earlier work
sigma receptors = details: sigma and dopamine receptors; cited from earlier work
cerebral cortex = details: cited from earlier work
[3] = cited from earlier work
[4] = test system: neurotoxic side effects caused by NMDA antagonists such as PCP or MK-801; details: Olney et al 1991, U.S. Pat. No. 5,034,400; cited from earlier work
[5] = compared to clonidine; cited from earlier work
[6] = test system: alpha-2 adrenergic receptor; details: for shift of clonidine blocking curve: preliminary, combined with clonidine (n=4), yohimbine 1 mg/kg ip or rauwolscine 5 mg/kg ip
Experimental: The brains were processed and the severity of damage assessed as described in Example 1. Results were analyzed by analysis of variance (ANOVA) where the dose of xylazine was the covariate and the presence of yohimbine served as the classification (treatment) variable. The homogeneity of slopes assumption was tested by determining whether there was a significant interaction between the covariate and the treatment variable.

Clc1ccc2c(c1)C(N1CCNCC1)=Nc1ccccc1O2 [Amoxapine]
ED50 (PC/RS cortical neurons): 75 mg/kg

Clc1cccc(Cl)c1N=C1NCCN1 [Clonidine]
ED50 ([1]; 4 h): 0.044 mg/kg | relative potency in preventing the neurotoxic reaction [1]: the most potent | cytopathology in retina incubated in NMDA plus MK-801, without or with α2 agonist (chick embryo retina): no cytopathology | affinity/selectivity for α2 over α1 receptors (α2 receptors): activate α2 receptors with higher affinity than they have for α1 receptors | reduction of withdrawal symptoms [2]: help reduce withdrawal symptoms in some recovering addicts

CN1CCN(C2=Nc3cc(Cl)ccc3Nc3ccccc32)CC1 [Clozapine]
ED50 (PC/RS cortical neurons; protection against MK-801-induced vacuoles, confidence limits 25th & 75th percentiles in separate column, read-out: ED50): 3.2 mg/kg

Cc1ccccc1NC(=N)Nc1ccccc1C [Di(2-tolyl)guanidine, di(2-tolyl)guanidine]
ED50 (PC/RS cortical neurons): 22.2 mg/kg

CN1CCN(C2=Nc3cc(F)ccc3Cc3ccccc32)CC1 [Fluperlapine]
ED50 (PC/RS cortical neurons): 2.3 mg/kg

N=C(N)N/N=C/c1c(Cl)cccc1Cl [Guanabenz]
ED50 ([1]; 4 h): 0.21 mg/kg | relative potency in preventing the neurotoxic reaction [1]: intermediate | affinity/selectivity for α2 over α1 receptors (α2 receptors): activate α2 receptors with higher affinity than they have for α1 receptors

O=C(CCCN1CCC(O)(c2ccc(Cl)cc2)CC1)c1ccc(F)cc1 [Haloperidol]
ED50 (PC/RS cortical neurons): 5.1 mg/kg | receptor selectivity (sigma receptors): interact with both dopamine receptors and sigma receptors

CNC1(c2ccccc2Cl)CCCCC1=O (stereo not drawn) [Ketamine]
pathomorphological changes in brain (cerebral cortex; rat, in vivo): cause pathomorphological changes in the cerebral cortex of adult rats | duration of action ([3]; ketamine, human anesthesia): about 15 minutes

CN1CCN(C2=Nc3ccccc3Oc3ccc(Cl)cc32)CC1 [Loxapine]
ED50 (PC/RS cortical neurons): 23.6 mg/kg | receptor selectivity (sigma receptors): interact with both dopamine receptors and sigma receptors

C[C@]12N[C@H](Cc3ccccc31)c1ccccc12 [MK-801, (+)-5-methyl-10,11-dihydro-5H-di[a,d]-cyclohepten-5,10-imine]
mean number of vacuolated neurons per section ([1]; MK-801 0.5 mg/kg sc plus vehicle, 4 h, SEM, n=26): 223±10.5 vacuolated neurons per section | neurotoxic reaction to MK-801 ([1]; all control animals, MK-801 0.5 mg/kg sc): All control animals developed a neurotoxic reaction | protection against excitotoxic damage (chick embryo retina; regardless of α2 agonist): completely protected against excitotoxic damage | cytopathology in retina incubated in NMDA plus MK-801, without or with α2 agonist (chick embryo retina): no cytopathology | duration of action ([3]; in words): measured in days

Cc1cc2c(s1)Nc1ccccc1N=C2N1CCN(C)CC1 [Olanzapine]
ED50 (PC/RS cortical neurons): 1.4 mg/kg

C[C@@H]1CN(CCCn2c3ccccc3c3ccccc32)C[C@H](C)N1 [Rimcazole]
ED50 (PC/RS cortical neurons): 17.8 mg/kg | receptor selectivity (sigma receptors): substantial affinity only for sigma receptors

CSc1ccc2c(c1)N(CCC1CCCCN1C)c1ccccc1S2 (stereo not drawn) [Thioridazine]
ED50 (PC/RS cortical neurons): 55.3 mg/kg | receptor selectivity (sigma receptors): interact with both dopamine receptors and sigma receptors

CCNC1(c2cccs2)CCCCC1=O (stereo not drawn) [Tiletamine]
pathomorphological changes in brain (cerebral cortex; adult rat, literature): cause pathomorphological changes in the cerebral cortex of adult rats

Cc1cccc(C)c1N=C1NCCCS1 [Xylazine]
ED50 ([1]; 4 h): 2.4 mg/kg | relative potency in preventing the neurotoxic reaction [1]: the least potent | cytopathology in retina incubated in NMDA plus MK-801, without or with α2 agonist (chick embryo retina): no cytopathology | affinity/selectivity for α2 over α1 receptors (α2 receptors): activate α2 receptors with higher affinity than they have for α1 receptors

C[C@](N)(Cc1ccc(O)c(O)c1)C(=O)O [alpha-methyldopa]
affinity/selectivity for α2 over α1 receptors (α2 receptors): activate α2 receptors with higher affinity than they have for α1 receptors

CC(N)C(O)c1ccc(O)c(O)c1 (stereo not drawn) [alpha-methylnoradrenaline]
affinity/selectivity for α2 over α1 receptors (α2 receptors): activate α2 receptors with higher affinity than they have for α1 receptors

CCN1CCc2nc(N)oc2CC1 [azepexole]
affinity/selectivity for α2 over α1 receptors (α2 receptors): activate α2 receptors with higher affinity than they have for α1 receptors; also recorded: substantially more selectivity for α2 receptors than for α1 receptors, when compared to clonidine; also recorded: substantially higher selectivity for α2 receptors (and substantially lower affinity for α1 receptors) than clonidine

CN1[C@@H]2CC[C@H]1C[C@@H](OC(c1ccccc1)c1ccccc1)C2 [benztropine]
block of neurotoxic side effects caused by NMDA antagonists [4]: can block the neurotoxic side effects caused by NMDA antagonists

OC(CCN1CCCCC1)(c1ccccc1)C1CC2C=CC1C2 (stereo not drawn) [biperiden]
block of neurotoxic side effects caused by NMDA antagonists [4]: can block the neurotoxic side effects caused by NMDA antagonists

Cc1cccc([C@H](C)c2cnc[nH]2)c1C [dexmedetomidine]
affinity/selectivity for α2 over α1 receptors (α2 receptors): activate α2 receptors with higher affinity than they have for α1 receptors; also recorded: substantially more selectivity for α2 receptors than for α1 receptors, when compared to clonidine; also recorded: substantially higher selectivity for α2 receptors (and substantially lower affinity for α1 receptors) than clonidine

N=C(N)NC(=O)Cc1c(Cl)cccc1Cl [guanfacine]
affinity/selectivity for α2 over α1 receptors (α2 receptors): activate α2 receptors with higher affinity than they have for α1 receptors; also recorded: substantially higher selectivity for α2 receptors (and substantially lower affinity for α1 receptors) than clonidine | hypotensive side effects [5]: substantially lower activity in reducing blood pressure than clonidine

Cc1cccc(C(C)c2cnc[nH]2)c1C (stereo not drawn) [medetomidine]
affinity/selectivity for α2 over α1 receptors (α2 receptors): activate α2 receptors with higher affinity than they have for α1 receptors

Clc1cc(I)cc(Cl)c1NC1=NCCN1 [p-Iodoclonidine]
ED50 ([1]; 4 h): 1.3 mg/kg | relative potency in preventing the neurotoxic reaction [1]: intermediate | affinity/selectivity for α2 over α1 receptors (α2 receptors): activate α2 receptors with higher affinity than they have for α1 receptors

OC(CCN1CCCC1)(c1ccccc1)C1CCCCC1 (stereo not drawn) [procyclidine]
block of neurotoxic side effects caused by NMDA antagonists [4]: can block the neurotoxic side effects caused by NMDA antagonists

COC(=O)[C@H]1[C@H]2C[C@H]3c4[nH]c5ccccc5c4CCN3C[C@H]2CC[C@@H]1O [rauwolscine]
shift of clonidine blocking curve [6]: A similar shifting of the curve to the right

C1COC(NC(C2CC2)C2CC2)=N1 [rilmenidine]
affinity/selectivity for α2 over α1 receptors (α2 receptors): activate α2 receptors with higher affinity than they have for α1 receptors

C=CCC1(C(C)CCC)C(=O)NC(=O)NC1=O (stereo not drawn) [secobarbitol]
block of neurotoxic side effects caused by NMDA antagonists [4]: can block the neurotoxic side effects caused by NMDA antagonists

Clc1ccc2nsnc2c1NC1=NCCN1 [tizanidine]
affinity/selectivity for α2 over α1 receptors (α2 receptors): activate α2 receptors with higher affinity than they have for α1 receptors

OC(CCN1CCCCC1)(c1ccccc1)C1CCCCC1 (stereo not drawn) [trihexyphenidyl]
block of neurotoxic side effects caused by NMDA antagonists [4]: can block the neurotoxic side effects caused by NMDA antagonists

COC(=O)[C@@H]1[C@H]2C[C@H]3c4[nH]c5ccccc5c4CCN3C[C@@H]2CC[C@@H]1O [yohimbine]
shift of clonidine blocking curve [6]: A similar shifting of the curve to the right | effect on xylazine's protection ([6]; yohimbine 1 mg/kg ip with various doses of xylazine, MK-801-treated rats, F(1,42)=9.40, p=0.004): significantly interfered with xylazine's protection | shift of xylazine blocking curve ([6]; yohimbine 1 mg/kg ip, MK-801-treated rats, FIG. 2): shifted the blocking curve to the right
